SMILES strings stand for the structures. Entries after “also recorded” stand apart in the source; their conditions may differ. Where only a bound is given, the exact number is not on record here.

Common to all, as to assay type: biochemical
The target of one assay is T1, mABHD3 (Mus musculus, UniProt Q91ZH7).
T1 construct: expressed in transfected cells; host or cells: HEK293T, transient transfection, pCMV-Sport6; lysate used in vitro
T1 sequence (Q91ZH7 1-411): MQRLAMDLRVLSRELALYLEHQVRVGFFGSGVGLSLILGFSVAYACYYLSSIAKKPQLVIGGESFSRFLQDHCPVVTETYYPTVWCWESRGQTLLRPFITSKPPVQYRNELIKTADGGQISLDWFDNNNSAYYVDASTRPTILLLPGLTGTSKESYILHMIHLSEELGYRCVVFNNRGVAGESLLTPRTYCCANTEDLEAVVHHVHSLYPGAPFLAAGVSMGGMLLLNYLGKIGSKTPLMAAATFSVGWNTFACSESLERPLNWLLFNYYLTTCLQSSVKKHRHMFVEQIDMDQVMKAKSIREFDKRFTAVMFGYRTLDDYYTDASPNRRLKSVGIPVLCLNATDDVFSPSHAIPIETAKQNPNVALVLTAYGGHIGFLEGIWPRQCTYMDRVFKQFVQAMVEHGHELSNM
Description: Gel-based competitive ABPP, recombinant enzyme in transfected HEK293T cell lysates. As to conditions: transfected HEK293T lysates, read-out: mABHD3 in vitro potency (IC50). Here is the method: (§1) HEK293T cells were seeded at 2×10^5 per well on 6 well plates and grown for 48 h. They were then transfected with mABHD3 (pCMV-Sport6), hABHD4 (pcDNA3.1/myc-his), hPPT1 (pCMV6-XL5), or hPPT1 S115A (pCMV6-XL5), by incubating 0.5 μg of DNA with 3 μL of PEI MAX (1 mg/mL, Polysciences, Inc) in serum-free DMEM for 30 min, then adding them to cells. After 48 h cells were either treated with compound in situ, as described above, or harvested for in vitro studies. The […] PPT1 mutation was introduced using QuikChange II Site Directed Mutagenesis Kit (Agilent) with the following primers: […]
Human ABHD3 and ABHD4 were recombinantly expressed by transient transfection in HEK293T cells, and the cell lysates were combined to provide a convenient assay for monitor inhibition of both enzymes by gel-based ABPP (see FIG. 8A).

The target in a further assay is T2, ABHD4 (Homo sapiens, UniProt Q8TB40).
T2 sequence (Q8TB40 1-342): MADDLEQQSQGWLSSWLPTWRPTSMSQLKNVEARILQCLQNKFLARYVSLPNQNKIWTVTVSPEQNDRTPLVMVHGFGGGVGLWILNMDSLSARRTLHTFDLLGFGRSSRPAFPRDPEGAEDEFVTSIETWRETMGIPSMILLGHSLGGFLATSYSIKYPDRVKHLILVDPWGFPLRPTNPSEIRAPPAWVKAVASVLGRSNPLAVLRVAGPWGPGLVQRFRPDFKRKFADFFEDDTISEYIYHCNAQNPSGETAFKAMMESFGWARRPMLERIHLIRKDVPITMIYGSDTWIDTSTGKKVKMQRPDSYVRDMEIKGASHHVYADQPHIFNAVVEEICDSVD
The assay is described as above. On the set-up: myc-his; expressed in transfected cells; host or cells: HEK293T, transient transfection, pcDNA3.1/myc-his; lysate used in vitro. Particulars: recombinant; for IC50: transfected HEK293T lysates, read-out: hABHD4 in vitro potency (IC50). How it is done: as §1
Human ABHD3 and ABHD4 were recombinantly expressed by transient transfection in HEK293T cells, and the cell lysates were combined to provide a convenient assay for monitor inhibition of both enzymes by gel-based ABPP (see FIG. 8A). […]

The test system of assay [1] is FP-sensitive SHs in the mouse brain membrane proteome. Kind of assay: Gel-based competitive ABPP in vitro, mouse brain membrane proteome, anti-targets. Particulars: for Anti-target(s) 0.1 μM: SHs with at least 50% inhibition at 0.1 μM compound; for Anti-target(s) 1 μM: SHs with at least 50% inhibition at 1 μM compound; for Anti-target(s) 10 μM: SHs with at least 50% inhibition at 10 μM compound; for Anti-target(s) 100 μM: SHs with at least 50% inhibition at 100 μM compound. In short, it runs like this:
(§2)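 Mouse brain membrane proteome (1 mg/mL in DPBS) was treated with compound (0.1-100 μM) for 30 min at 37 °C, then labeled with FP-Rh (2 μM final, 30 min, 25 °C). Bands were resolved by SDS-PAGE and scanned in-gel, with inhibition taken from band optical density versus DMSO. Targets counted as active or anti-targets at ≥50% inhibition.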

Another assay has as its target T3, human LYPLA1 (Homo sapiens, UniProt O75608).
T3 construct: endogenous human LYPLA1/2 in a HeLa soluble proteome; endogenous in cells; host or cells: HeLa (soluble proteome in vitro; cultured cells in situ)
Description: IC50 by gel-based competitive ABPP in vitro, soluble HeLa cell proteome. As to conditions: human LYPLA isoform, three replicates; Table 2 prints no unit, nM; read-out: LYPLA1 IC50. How it is done: (§3) Assay Overview: The purpose of this assay was to determine IC50 values of powder samples of test compounds for enzyme of interest activity, and anti-targets in a complex proteomic lysate using a gel-based competitive ABPP assay. In this assay, a complex proteome was incubated with test compound followed by reaction with FP-Rh and SDS-PAGE analysis as described above.
(§4) Protocol Summary: Soluble HeLa cell proteome (50 μL reaction volume, 1 mg/mL in DPBS) or mouse brain membrane proteome (50 μL reaction volume, 1 mg/mL in DPBS) was treated with varying concentrations of test compound (1 μL of a 50× stock in DMSO) for 30 minutes at 37° C. FP-Rh (1 μL of 50× stock in DMSO) was added to a final concentration of 2 μM. The reaction was incubated for 30 minutes at 25° C., quenched with 16 μL 4×SDS-PAGE loading buffer (reducing), separated by SDS-PAGE and visualized by in-gel fluorescent scanning. The percentage activity remaining was determined by measuring the integrated optical density of the enzymes of interest, and anti-target bands relative to a DMSO-only (no compound) control. IC50 values were determined from dose-response curves from three replicates at each inhibitor concentration: 1, 10, 100, 1000, 10000 nM and 0.01, 0.1, 1, 10, 100, 1000, 10000, 50000, and 100000 nM.

In the next assay the target is T4, human LYPLA2 (Homo sapiens, UniProt O95372).
T4 construct: endogenous human LYPLA1/2 in a HeLa soluble proteome; endogenous in cells; host or cells: HeLa (soluble proteome in vitro; cultured cells in situ)
Described as above. Particulars: human LYPLA isoform, three replicates; Table 2 prints no unit, nM; read-out: LYPLA2 IC50. Here is the method:
as §3, §4

The target of a further assay is T5, LYPLA2 (Mus musculus, UniProt Q9WTL7).
T5 construct: a complex proteome endogenously expressing LYPLA1/2 was incubated with test compound; from tissue; host or cells: mouse brain, membrane fraction
Kind of assay: Gel-based competitive ABPP in vitro, mouse brain membrane proteome. As to conditions: for inhibition at 0.1 µM: 0.1 μM compound, read-out: LYPLA2 % INH 0.1 μM; for inhibition at 0.1 µM / inhibition at 1 µM / inhibition at 10 µM / inhibition at 100 µM: 30 min, one replicate; for inhibition at 1 µM: 1 μM compound, read-out: LYPLA2 % INH 1 μM; for inhibition at 10 µM: 10 μM compound, read-out: LYPLA2 % INH 10 μM; for inhibition at 100 µM: 100 μM compound, read-out: LYPLA2 % INH 100 μM. In short, it runs like this: as §2

For a further assay, the target named is T6, LYPLA1 (Mus musculus, UniProt P97823).
T6 construct: a complex proteome endogenously expressing LYPLA1/2 was incubated with test compound; from tissue; host or cells: mouse brain, membrane fraction
Described as above. Particulars: for inhibition at 0.1 µM: 0.1 μM compound, read-out: LYPLA1 % INH 0.1 μM; for inhibition at 0.1 µM / inhibition at 1 µM / inhibition at 10 µM / inhibition at 100 µM: 30 min, one replicate; for inhibition at 1 µM: 1 μM compound, read-out: LYPLA1 % INH 1 μM; for inhibition at 10 µM: 10 μM compound, read-out: LYPLA1 % INH 10 μM; for inhibition at 100 µM: 100 μM compound, read-out: LYPLA1 % INH 100 μM. The method, boiled down: as §2

Setting [2] is: 20 μM, mouse brain (mem) proteome.

T5 sequence (Q9WTL7 whole entry): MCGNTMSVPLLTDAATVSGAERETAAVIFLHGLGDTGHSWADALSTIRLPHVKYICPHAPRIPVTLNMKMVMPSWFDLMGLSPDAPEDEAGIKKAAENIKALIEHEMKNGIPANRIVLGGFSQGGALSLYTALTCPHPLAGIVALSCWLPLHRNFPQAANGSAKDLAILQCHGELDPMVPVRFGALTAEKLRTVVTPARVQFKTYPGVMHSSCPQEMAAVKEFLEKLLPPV
T6 sequence (P97823 whole entry): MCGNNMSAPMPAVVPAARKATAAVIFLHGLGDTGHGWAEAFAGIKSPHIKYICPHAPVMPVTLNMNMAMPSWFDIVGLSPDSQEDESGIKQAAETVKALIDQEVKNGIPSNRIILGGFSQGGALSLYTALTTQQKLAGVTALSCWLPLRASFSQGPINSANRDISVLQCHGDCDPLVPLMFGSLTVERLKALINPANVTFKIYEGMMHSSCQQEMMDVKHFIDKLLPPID
T4 sequence (O95372 whole entry): as the sequence (Q9WTL7 whole entry) above, with N154A, T193S counted along it
T3 sequence (O75608 whole entry): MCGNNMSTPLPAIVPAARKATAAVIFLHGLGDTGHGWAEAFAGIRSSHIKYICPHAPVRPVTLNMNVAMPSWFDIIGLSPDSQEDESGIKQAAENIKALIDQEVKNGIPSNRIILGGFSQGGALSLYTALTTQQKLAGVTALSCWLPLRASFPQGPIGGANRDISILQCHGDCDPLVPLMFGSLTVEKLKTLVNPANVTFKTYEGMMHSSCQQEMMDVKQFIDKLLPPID

As usually defined, the IC50 is the midpoint of a concentration-inhibition curve. As for `COc1ccc(N2CCN(C(=O)ON3C(=O)C4CN(Cc5cccc(Oc6ccccc6)c5)CCN4C3=O)CC2)cc1` (stereo not shown) [Compound 36, 1,3-dioxo-7-(3-phenoxybenzyl)hexahydroimidazo[1,5-a]pyrazin-2(3H)-yl 4-(4-methoxyphenyl)piperazine-1-carboxylate], the IC50 on mABHD3 is over 10 µM; at ABHD4, 0.2 µM. In addition, the “preference ABHD4 over ABHD3” value at ABHD4 (combined HEK293T lysates, gel-based ABPP) is recorded as “preferentially inhibited ABHD4 over ABHD3”.

As for `O=C(ON1C(=O)C2CN(Cc3cccc(Oc4ccccc4)c3)CCN2C1=O)N1CCC(CCc2ccc(Cl)cc2)CC1` (stereo not shown) [Compound 35, 1,3-dioxo-7-(3-phenoxybenzyl)hexahydroimidazo[1,5-a]pyrazin-2(3H)-yl 4-(4-chlorophenethyl)piperidine-1-carboxylate], the figures for the 50% inhibitory concentration (IC50) on mABHD3 and on ABHD4 were over 10 µM and 1 µM, respectively.

For `CC(C)(C)CC(=O)N1CCN2C(=O)N(OC(=O)N3CCC(CCc4ccc(Cl)cc4)CC3)C(=O)C2C1` (stereo not shown) [Compound 4, 7-(3,3-dimethylbutanoyl)-1,3-dioxohexahydroimidazo[1,5-a]pyrazin-2(3H)-yl 4-(4-chlorophenethyl)piperidine-1-carboxylate], in assay [1], the “Anti-target(s) 0.1 μM” value is listed as “ABHD6”, the “Anti-target(s) 1 μM” value is listed as “FAAH,; also recorded: ABHD6”, the “Anti-target(s) 10 μM” value was “FAAH,; also recorded: ABHD12,; also recorded: MAGL,; also recorded: ABHD6” and the “Anti-target(s) 100 μM” value is given as “FAAH,; also recorded: ABHD12,; also recorded: ABHD4,; also recorded: MAGL,; also recorded: ABHD6”. Further, the IC50 on human LYPLA1 was found to be 92 nM. Besides, the IC50 at human LYPLA2 was 217 nM. Also, on LYPLA2, the inhibition at 0.1 µM stood at 80%, the inhibition at 1 µM was determined as 100%, the inhibition at 10 µM worked out at 100% and the inhibition at 100 µM was 100%. Further, at LYPLA1, the inhibition at 0.1 µM came to 80%, the inhibition at 1 µM was determined as 100%, the inhibition at 10 µM stood at 100% and the inhibition at 100 µM is 100%.

As for `COC(=O)C1CCN(C(=O)ON2C(=O)C3CN(Cc4ccc(Oc5ccccc5)cc4)CCN3C2=O)CC1` (stereo not shown) [Compound 31, 1-(1,3-dioxo-7-(4-phenoxybenzyl)hexahydroimidazo[1,5-a]pyrazin-2(3H)-yl) 4-methyl piperidine-1,4-dicarboxylate], the values for the IC50 on mABHD3 and at ABHD4 were over 10 µM and 8.2 µM, respectively. Besides, the “LYPLA2 in vitro enzyme activity, % @ 20 μM” value at LYPLA2 (setting [2]) turned out to be 0% @. For the same molecule, the “LYPLA1 in vitro enzyme activity, % @ 20 μM” value on LYPLA1 (setting [2]) came out at 0% @.

With `O=C(ON1C(=O)C2CN(C(=O)N3CCCC3)CCN2C1=O)N1CCC(CCc2ccc(Cl)cc2)CC1` (stereo not shown) [Compound 3, 1,3-dioxo-7-(pyrrolidine-1-carbonyl)hexahydroimidazo[1,5-a]pyrazin-2(3H)-yl 4-(4-chlorophenethyl)piperidine-1-carboxylate], in assay [1], the “Anti-target(s) 0.1 μM” value is “ABHD6”, the “Anti-target(s) 1 μM” value is listed as “FAAH,; also recorded: ABHD6”, the “Anti-target(s) 10 μM” value was “FAAH,; also recorded: ABHD6” and the “Anti-target(s) 100 μM” value is given as “FAAH,; also recorded: ABHD12,; also recorded: ABHD4,; also recorded: MAGL,; also recorded: ABHD6”. The IC50 at human LYPLA1 is 225 nM. In addition, the IC50 on human LYPLA2 was 384 nM. At LYPLA2, the inhibition at 0.1 µM amounted to 50%, the inhibition at 1 µM is 100%, the inhibition at 10 µM worked out at 100% and the inhibition at 100 µM turned out to be 100%. In addition, at LYPLA1, the inhibition at 0.1 µM worked out at 50%, the inhibition at 1 µM was found to be 100%, the inhibition at 10 µM turned out to be 100% and the inhibition at 100 µM is 100%.

These data come from patent publication US9981972B2, “N-hydroxy bicyclic hydantoin carbamates as tools for identification of serine hydrolase targets” (ABIDE THERAPEUTICS, INC., priority 2014, dated 2018).
